# Assay: Binding affinity to LAR C1536S mutant (unknown origin) assessed as inhibition constant by Michaelis-Menten analysis
# Design: species or system Homo sapiens
smiles,measurement,value
CC1(C)Cc2c(O)c(C=O)c3c(c2C1)C(=O)OC(O)C3 (stereo unspecified) [ILLUDALIC ACID],Ki,7 µM
